Laboratory results as given in patent US8097581B2, “Anti-wrinkle cosmetic composition” (Grant Industries Inc., priority 2007, dated 2012).

Key:
[1] = system: human dermal fibroblast cultures; assay: Stimulation of mitochondrial metabolic activity (MTT method); type: cell-based; details: 10 ng/ml; positive control
Source text: In order to maintain youthful appearance, skin needs to constantly replace and regenerate its damaged components. This is predominantly the role of dermal fibroblasts. How well this job is done depends on the metabolic vigor of these cells as damaged or dormant fibroblasts will not be able to actively produce the replacement parts for the skin. This is why the stimulation of their metabolic activity is viewed as beneficial to the skin, not unlike the stimulation of metabolic activity is beneficial to the muscle. We tested the effect of RD1071 on the metabolic activity of mitochondria of human dermal fibroblast cultures using MTT method (Berridge et al., 1993). Mitochondria are cellular powerhouses producing energy (ATP) for the entire cell. […] Thus, example 1 (RD1071) increases cellular metabolism in a dose-dependant manner. The positive control in this experiment is use of basic fibroblast growth factor, bFGF at 10 ng/ml concentration.

[2] = system: fibroblast cultures; assay: Total protein production stimulation (method of Skehan et al.); type: cell-based, human; details: 10 ng/ml; positive control
Experimental: The stimulation of metabolic activity by RD1071 also translated into an increase of total protein content in fibroblast cultures. […] For example, UV radiation and aging are associated with the increased proteolytic activity in the skin. The stimulation of total protein production could counterbalance the loss of proteins caused by this increased proteolytic activity. Total protein was measured using the method of Skehan et al. (1990). […] The basic fibroblast growth factor, bFGF, was again used as a positive control.

For “bFGF: basic fibroblast growth factor, positive control at 10 ng/ml”, the “Mitochondrial Metabolism % Control” value [1] was 174 % Control and the “Protein Stimulation % Control” value [2] was 118 % Control.
